Tested on: P12-Ichikawa
Test: cell viability relative to DMSO control; higher = less cytotoxic
Settings: 48 h
How it was run: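 Viability is expressed as a percentage of DMSO wells within each plate, and cell-free wells serve as background. Seeding densities in the 1536-well plates (5 μl) were 500 cells/well for NOMO1 or SEM leukemia cells and 1000 cells/well for P12-Ichikawa. Each line was adapted for at least four passages in each medium. Library compounds in DMSO were pin-dosed at 47 μM to 0.79 nM (11 points, threefold), and CellTiter-Glo One luminescence was read after 48 h at 37°C.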

[1] = HPLM + 10% dialyzed FBS, 0.000781 µM
[2] = HPLM + 10% dialyzed FBS, 0.00234 µM
[3] = HPLM + 10% dialyzed FBS, 0.00702 µM
[4] = HPLM + 10% dialyzed FBS, 0.0211 µM
[5] = HPLM + 10% dialyzed FBS, 0.0632 µM
[6] = HPLM + 10% dialyzed FBS, 0.19 µM
[7] = HPLM + 10% dialyzed FBS, 0.569 µM
[8] = HPLM + 10% dialyzed FBS, 1.71 µM
[9] = HPLM + 10% dialyzed FBS, 5.12 µM
[10] = HPLM + 10% dialyzed FBS, 15.4 µM
[11] = HPLM + 10% dialyzed FBS, 46.1 µM
[12] = RPMI 5 mM glucose + 10% dialyzed FBS, 0.000781 µM
[13] = RPMI 5 mM glucose + 10% dialyzed FBS, 0.00234 µM
[14] = RPMI 5 mM glucose + 10% dialyzed FBS, 0.00702 µM
[15] = RPMI 5 mM glucose + 10% dialyzed FBS, 0.0211 µM
[16] = RPMI 5 mM glucose + 10% dialyzed FBS, 0.0632 µM
[17] = RPMI 5 mM glucose + 10% dialyzed FBS, 0.19 µM
[18] = RPMI 5 mM glucose + 10% dialyzed FBS, 0.569 µM
[19] = RPMI 5 mM glucose + 10% dialyzed FBS, 1.71 µM
[20] = RPMI 5 mM glucose + 10% dialyzed FBS, 5.12 µM
[21] = RPMI 5 mM glucose + 10% dialyzed FBS, 15.4 µM
[22] = RPMI 5 mM glucose + 10% dialyzed FBS, 46.1 µM
[23] = RPMI 5 mM glucose + 10% FBS, 0.000781 µM
[24] = RPMI 5 mM glucose + 10% FBS, 0.00234 µM
[25] = RPMI 5 mM glucose + 10% FBS, 0.00702 µM
[26] = RPMI 5 mM glucose + 10% FBS, 0.0211 µM
[27] = RPMI 5 mM glucose + 10% FBS, 0.0632 µM
[28] = RPMI 5 mM glucose + 10% FBS, 0.19 µM
[29] = RPMI 5 mM glucose + 10% FBS, 0.569 µM
[30] = RPMI 5 mM glucose + 10% FBS, 1.71 µM
[31] = RPMI 5 mM glucose + 10% FBS, 5.12 µM
[32] = RPMI 5 mM glucose + 10% FBS, 15.4 µM
[33] = RPMI 5 mM glucose + 10% FBS, 46.1 µM

## COc1ccccc1OCCNCC(O)COc1cccc2[nH]c3ccccc3c12 (stereo not drawn)
[1]
  cell viability: 121%
[2]
  cell viability: 124%
[3]
  cell viability: 124%
[4]
  cell viability: 118%
[5]
  cell viability: 119%
[6]
  cell viability: 117%
[7]
  cell viability: 122%
[8]
  cell viability: 119%
[9]
  cell viability: 109%
[10]
  cell viability: 113%
[11]
  cell viability: 100%
[12]
  cell viability: 119%
[13]
  cell viability: 115%
[14]
  cell viability: 119%
[15]
  cell viability: 119%
[16]
  cell viability: 122%
[17]
  cell viability: 122%
[18]
  cell viability: 115%
[19]
  cell viability: 124%
[20]
  cell viability: 112%
[21]
  cell viability: 112%
[22]
  cell viability: 99.6%

## O=[N+]([O-])c1ccc(Nc2ccccc2-c2ccccc2)c2nonc12
[1]
  cell viability: 85.2%
[2]
  cell viability: 90.1%
[3]
  cell viability: 92.4%
[4]
  cell viability: 91.2%
[5]
  cell viability: 85.1%
[6]
  cell viability: 90.4%
[7]
  cell viability: 94.2%
[8]
  cell viability: 96.7%
[9]
  cell viability: 90.6%
[10]
  cell viability: 91%
[11]
  cell viability: 89.4%
[23]
  cell viability: 83.6%
[24]
  cell viability: 91.2%
[25]
  cell viability: 86.4%
[26]
  cell viability: 91.1%
[27]
  cell viability: 90.6%
[28]
  cell viability: 88%
[29]
  cell viability: 93.4%
[30]
  cell viability: 95.4%
[31]
  cell viability: 90.7%
[32]
  cell viability: 96.2%
[33]
  cell viability: 86.5%
[12]
  cell viability: 89.6%
[13]
  cell viability: 87.1%
[14]
  cell viability: 84.8%
[15]
  cell viability: 92.3%
[16]
  cell viability: 93.8%
[17]
  cell viability: 97.6%
[18]
  cell viability: 94.1%
[19]
  cell viability: 90.7%
[20]
  cell viability: 88.7%
[21]
  cell viability: 95.2%
[22]
  cell viability: 84.9%

## Cn1cc(-c2cnn3c(N)c(Br)c([C@@H]4CCCNC4)nc23)cn1
[1]
  cell viability: 96.1%
[2]
  cell viability: 102%
[3]
  cell viability: 99.5%
[4]
  cell viability: 97.5%
[5]
  cell viability: 102%
[6]
  cell viability: 99.7%
[7]
  cell viability: 91.3%
[8]
  cell viability: 86.4%
[9]
  cell viability: 16.8%
[10]
  cell viability: 5.55%
[11]
  cell viability: 6.43%
[23]
  cell viability: 91.6%
[24]
  cell viability: 98.8%
[25]
  cell viability: 94%
[26]
  cell viability: 100%
[27]
  cell viability: 93.4%
[28]
  cell viability: 96.5%
[29]
  cell viability: 93.8%
[30]
  cell viability: 77.3%
[31]
  cell viability: 13.1%
[32]
  cell viability: 3.15%
[33]
  cell viability: 3.91%
[12]
  cell viability: 86.9%
[13]
  cell viability: 103%
[14]
  cell viability: 95.9%
[15]
  cell viability: 95.1%
[16]
  cell viability: 89.8%
[17]
  cell viability: 99%
[18]
  cell viability: 90.2%
[19]
  cell viability: 77.3%
[20]
  cell viability: 12.2%
[21]
  cell viability: 4.05%
[22]
  cell viability: 5.37%

## C[N]1N=CC2=C1C=C(C(=C2)OC3=CC=C(NC(=O)\C4=C\C=C(\C)N(C4=O)C5=CC=C(F)C=C5)C=C3F)C6=C[NH]N=C6
[1]
  cell viability: 99.5%
[2]
  cell viability: 113%
[3]
  cell viability: 117%
[4]
  cell viability: 114%
[5]
  cell viability: 114%
[6]
  cell viability: 127%
[7]
  cell viability: 123%
[8]
  cell viability: 104%
[9]
  cell viability: 78.1%
[10]
  cell viability: 12%
[11]
  cell viability: 8.97%
[23]
  cell viability: 104%
[24]
  cell viability: 109%
[25]
  cell viability: 115%
[26]
  cell viability: 117%
[27]
  cell viability: 127%
[28]
  cell viability: 130%
[29]
  cell viability: 130%
[30]
  cell viability: 128%
[31]
  cell viability: 78.9%
[32]
  cell viability: 16.1%
[33]
  cell viability: 10.5%
[12]
  cell viability: 119%
[13]
  cell viability: 123%
[14]
  cell viability: 130%
[15]
  cell viability: 125%
[16]
  cell viability: 124%
[17]
  cell viability: 138%
[18]
  cell viability: 129%
[19]
  cell viability: 128%
[20]
  cell viability: 90.2%
[21]
  cell viability: 26.6%
[22]
  cell viability: 16.3%

## CCOc1cc(/C=C2/C(=O)N(c3ccccc3)N=C2C)cc(Cl)c1OCC(=O)OC
[1]
  cell viability: 85.7%
[2]
  cell viability: 90.9%
[3]
  cell viability: 87.7%
[4]
  cell viability: 93.7%
[5]
  cell viability: 84.6%
[6]
  cell viability: 89.9%
[7]
  cell viability: 91.1%
[8]
  cell viability: 98.7%
[9]
  cell viability: 88.3%
[10]
  cell viability: 84.6%
[11]
  cell viability: 83.3%
[23]
  cell viability: 79.4%
[24]
  cell viability: 89.3%
[25]
  cell viability: 77.2%
[26]
  cell viability: 85.7%
[27]
  cell viability: 81%
[28]
  cell viability: 92.8%
[29]
  cell viability: 89.1%
[30]
  cell viability: 86.6%
[31]
  cell viability: 89.8%
[32]
  cell viability: 80.9%
[33]
  cell viability: 89.6%
[12]
  cell viability: 90.1%
[13]
  cell viability: 85.7%
[14]
  cell viability: 92%
[15]
  cell viability: 88%
[16]
  cell viability: 83%
[17]
  cell viability: 88.5%
[18]
  cell viability: 85%
[19]
  cell viability: 86.9%
[20]
  cell viability: 86.9%
[21]
  cell viability: 90.7%
[22]
  cell viability: 86.5%

## O=C(O)CSCC(=O)NC1CCSC1=O (stereo not drawn)
[1]
  cell viability: 108%
[2]
  cell viability: 108%
[3]
  cell viability: 112%
[4]
  cell viability: 120%
[5]
  cell viability: 120%
[6]
  cell viability: 129%
[7]
  cell viability: 110%
[8]
  cell viability: 114%
[9]
  cell viability: 117%
[10]
  cell viability: 115%
[11]
  cell viability: 116%
[23]
  cell viability: 106%
[24]
  cell viability: 108%
[25]
  cell viability: 114%
[26]
  cell viability: 130%
[27]
  cell viability: 123%
[28]
  cell viability: 114%
[29]
  cell viability: 115%
[30]
  cell viability: 116%
[31]
  cell viability: 111%
[32]
  cell viability: 116%
[33]
  cell viability: 118%
[12]
  cell viability: 103%
[13]
  cell viability: 110%
[14]
  cell viability: 114%
[15]
  cell viability: 114%
[16]
  cell viability: 117%
[17]
  cell viability: 116%
[18]
  cell viability: 115%
[19]
  cell viability: 112%
[20]
  cell viability: 106%
[21]
  cell viability: 127%
[22]
  cell viability: 111%

## C[C@H]1C[C@H]2[C@@H]3CCC4=CC(=O)C=C[C@]4(C)[C@H]3C(=O)C[C@]2(C)[C@@]1(O)C(=O)CO
[1]
  cell viability: 91.4%
[2]
  cell viability: 96.5%
[3]
  cell viability: 93.1%
[4]
  cell viability: 95.6%
[5]
  cell viability: 88%
[6]
  cell viability: 92.7%
[7]
  cell viability: 87.6%
[8]
  cell viability: 94.8%
[9]
  cell viability: 88.3%
[10]
  cell viability: 101%
[11]
  cell viability: 93%
[23]
  cell viability: 91.3%
[24]
  cell viability: 98.1%
[25]
  cell viability: 94%
[26]
  cell viability: 90.7%
[27]
  cell viability: 94.7%
[28]
  cell viability: 99.7%
[29]
  cell viability: 94.9%
[30]
  cell viability: 97.2%
[31]
  cell viability: 100%
[32]
  cell viability: 95.7%
[33]
  cell viability: 85.3%
[12]
  cell viability: 83.7%
[13]
  cell viability: 91.7%
[14]
  cell viability: 80.1%
[15]
  cell viability: 89.7%
[16]
  cell viability: 84%
[17]
  cell viability: 85.6%
[18]
  cell viability: 82.7%
[19]
  cell viability: 83.7%
[20]
  cell viability: 82.2%
[21]
  cell viability: 85.6%
[22]
  cell viability: 70.5%

## C=CCc1cc(OC)c(O)c(C(=O)NCCO)c1
[1]
  cell viability: 106%
[2]
  cell viability: 113%
[3]
  cell viability: 109%
[4]
  cell viability: 108%
[5]
  cell viability: 106%
[6]
  cell viability: 109%
[7]
  cell viability: 99.4%
[8]
  cell viability: 105%
[9]
  cell viability: 103%
[10]
  cell viability: 93%
[11]
  cell viability: 98.2%
[23]
  cell viability: 99.6%
[24]
  cell viability: 112%
[25]
  cell viability: 95.4%
[26]
  cell viability: 104%
[27]
  cell viability: 113%
[28]
  cell viability: 100%
[29]
  cell viability: 103%
[30]
  cell viability: 95.4%
[31]
  cell viability: 101%
[32]
  cell viability: 93.7%
[33]
  cell viability: 89.4%
[12]
  cell viability: 98.9%
[13]
  cell viability: 108%
[14]
  cell viability: 104%
[15]
  cell viability: 104%
[16]
  cell viability: 103%
[17]
  cell viability: 101%
[18]
  cell viability: 105%
[19]
  cell viability: 104%
[20]
  cell viability: 84.4%
[21]
  cell viability: 105%
[22]
  cell viability: 94.1%
